From patent publication US11274098B2, “Tricyclic compounds for use in treatment of proliferative disorders” (ARGONAUT THERAPEUTICS LIMITED, priority 2017, dated 2022)

molecular target: human PRMT5/MEP50 (Homo sapiens (Human), UniProt O14744); test: PRMT5 chemiluminescent assay; assay type: biochemical; conditions: human PRMT5/MEP50 expressed in HEK293 cells; biotinylated histone peptide substrate; 60 min reaction; chemiluminescent readout
Procedure: A PRMT5 chemiluminescent assay was used to measure the […] activity of PRMT5. Biotinylated histone peptides were synthesized and attached to 384-well plates. Compound serial dilutions were performed and added to the assay plate. Histone H4 monomethyl R^3 antibody was obtained from Abcam. A master mix for each well was prepared and human PRMT5/MEP50 (expressed in HEK293 cells) diluted in assay buffer to a concentration of 5 ng/μL. The reaction was incubated and slowly rotated for 60 minutes at the point of PRMT5/MEP50 addition. The supernatant from the wells was removed and blocking buffer was added to each well and rotated for 10 minutes. The primary antibody was diluted and added to every well for 60 minutes, before it was removed and the wells washed. The horse radish peroxidase (HRP)-coupled secondary antibody was diluted and added to each well with an incubation time of 30 minutes. The HRP chemiluminescent substrate was added to every well. The plate was read on a Flourstar Omega BMG Labtech instrument (Ortenberg, Germany) and the analysis of IC50 was performed using the Flourstar Omega BMG Labtech software.

Sequence of human PRMT5/MEP50 (O14744 whole entry): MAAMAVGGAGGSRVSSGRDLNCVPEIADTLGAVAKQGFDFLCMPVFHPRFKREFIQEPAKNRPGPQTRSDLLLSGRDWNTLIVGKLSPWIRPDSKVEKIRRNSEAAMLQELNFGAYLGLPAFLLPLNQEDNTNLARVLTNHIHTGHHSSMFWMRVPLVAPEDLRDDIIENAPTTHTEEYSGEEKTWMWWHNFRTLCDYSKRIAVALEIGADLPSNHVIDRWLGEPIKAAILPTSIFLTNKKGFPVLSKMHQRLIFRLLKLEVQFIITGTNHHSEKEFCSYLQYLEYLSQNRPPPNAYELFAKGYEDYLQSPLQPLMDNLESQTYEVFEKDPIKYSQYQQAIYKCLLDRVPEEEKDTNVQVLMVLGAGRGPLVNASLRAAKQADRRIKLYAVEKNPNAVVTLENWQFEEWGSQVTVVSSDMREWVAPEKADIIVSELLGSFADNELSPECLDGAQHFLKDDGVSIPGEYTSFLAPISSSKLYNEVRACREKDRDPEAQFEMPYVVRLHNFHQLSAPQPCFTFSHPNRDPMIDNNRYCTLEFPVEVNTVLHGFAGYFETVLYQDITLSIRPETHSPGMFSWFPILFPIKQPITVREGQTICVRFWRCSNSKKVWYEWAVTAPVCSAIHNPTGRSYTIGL
Sequence of human PRMT5/MEP50 (Q9BQA1 whole entry partner): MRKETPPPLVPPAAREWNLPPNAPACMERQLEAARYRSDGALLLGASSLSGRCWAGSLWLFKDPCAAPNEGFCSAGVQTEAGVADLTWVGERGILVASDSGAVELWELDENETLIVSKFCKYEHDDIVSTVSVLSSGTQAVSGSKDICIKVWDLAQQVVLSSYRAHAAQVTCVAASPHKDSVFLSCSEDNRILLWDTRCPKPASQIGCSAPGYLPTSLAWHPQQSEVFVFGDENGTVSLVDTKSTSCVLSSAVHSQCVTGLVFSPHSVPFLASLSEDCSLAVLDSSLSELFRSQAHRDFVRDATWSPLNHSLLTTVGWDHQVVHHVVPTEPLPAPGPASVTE

Row | Compound | IC50 [µM]
1 | CC(=O)N1CCC(Nc2cc(C(=O)NCC(O)CN3CCc4[nH]c5ccccc5c4C3)ncn2)CC1 (stereo not drawn) [Example 4, 6-[(1-acetylpiperidin-4-yl)amino]-N-(2-hydroxy-3-{1H,2H,3H,4H,5H-pyrido[4,3-b]indol-2-yl}propyl)pyrimidine-4-carboxamide] | 0.542
2 | CN1CCN(c2nc(NC3CCC3)cc(C(=O)NCC(O)CN3CCc4c(n(C)c5ccccc45)C3)n2)CC1 (stereo not drawn) [Example 15, 6-(cyclobutylamino)-N-(2-hydroxy-3-{9-methyl-1H,2H,3H,4H,9H-pyrido[3,4-b]indol-2-yl}propyl)-2-(4-methylpiperazin-1-yl)pyrimidine-4-carboxamide] | 0.477
3 | CC(=O)N1CCC(Nc2cc(C(=O)NCC(O)CN3CCc4c([nH]c5ccccc45)C3)ncn2)CC1 (stereo not drawn) [Example 12, 6-[(1-acetylpiperidin-4-yl)amino]-N-(2-hydroxy-3-{1H,2H,3H,4H,9H-pyrido[3,4-b]indol-2-yl}propyl)pyrimidine-4-carboxamide] | 0.086
4 | Cn1c2c(c3ccccc31)CCN(CC(O)CNC(=O)c1cc(NC3CCC3)ncn1)C2 (stereo not drawn) [Example 17, 6-(cyclobutylamino)-N-(2-hydroxy-3-{9-methyl-1H,2H,3H,4H,9H-pyrido[3,4-b]indol-2-yl}propyl)pyrimidine-4-carboxamide] | 8.04
5 | CC(=O)N1CCC(Nc2cc(C(=O)NC[C@H](O)CN3CCc4c([nH]c5ccccc45)C3)ncn2)CC1 [Example 26, (S)-6-((1-acetylpiperidin-4-yl)amino)-N-(2-hydroxy-3-(1,3,4,9-tetrahydro-2H-pyrido [3,4-b]indol-2-yl)propyl)pyrimidine-4-carboxamide] | 0.01
6 | O=C(NCC(O)CN1CCc2c([nH]c3ccccc23)C1)c1ccc(C(=O)N2CCOCC2)cc1 (stereo not drawn) [Example 13, N-(2-hydroxy-3-{1H,2H,3H,4H,9H-pyrido[3,4-b]indol-2-yl}propyl)-4-[(morpholin-4-yl)carbonyl]benzamide] | 2.04
7 | CN1CCN(c2cc(C(=O)NCC(O)CN3CCc4c(c5ccccc5n4C)C3)cc(NC3CCC3)n2)CC1 (stereo not drawn) [Example 7, 2-(cyclobutylamino)-N-(2-hydroxy-3-{5-methyl-1H,2H,3H,4H,5H-pyrido[4,3-b]indol-2-yl}propyl)-6-(4-methylpiperazin-1-yl)pyridine-4-carboxamide] | 0.322
8 | O=C(NCC(O)CN1CCc2c([nH]c3ccccc23)C1)c1ccc(C(=O)N2C3CCC2COC3)cc1 (stereo not drawn) [Example 14, N-(2-hydroxy-3-{1H,2H,3H,4H,9H-pyrido[3,4-b]indol-2-yl}propyl)-4-({3-oxa-8-azabicyclo[3.2.1]octan-8-yl}carbonyl)benzamide] | 1.63
9 | O=C(NCC(O)CN1CCc2c([nH]c3ccccc23)C1)N1CCc2ccccc2C1 (stereo not drawn) [Example 22, N-(2-hydroxy-3-(1,3,4,9-tetrahydro-2H-pyrido[3,4-b]indol-2-yl)propyl)-3,4-dihydroisoquinoline-2(1H)-carboxamide] | 21
10 | CN1CCN(c2cc(C(=O)NCC(O)CN3CCc4c(n(C)c5ccccc45)C3)cc(NC3CCC3)n2)CC1 (stereo not drawn) [Example 16, 2-(cyclobutylamino)-N-(2-hydroxy-3-{9-methyl-1H,2H,3H,4H,9H-pyrido[3,4-b]indol-2-yl}propyl)-6-(4-methylpiperazin-1-yl)pyridine-4-carboxamide] | 0.286
11 | CC(=O)N1CCC(Nc2cc(C(=O)NCC(O)CN3CCn4c(cc5ccccc54)C3)ncn2)CC1 (stereo not drawn) [Example 28, 6-((1-acetylpiperidin-4-yl)amino)-N-(3-(3,4-dihydropyrazino[1,2-a]indol-2(1H)-yl)-2-hydroxypropyl)pyrimidine-4-carboxamide] | 0.045
12 | O=C(NCC(O)CN1CCc2c([nH]c3ccccc23)C1)N1CCCC(c2ccccc2)C1 (stereo not drawn) [Example 24, N-(2-hydroxy-3-(1,3,4,9-tetrahydro-2H-pyrido[3,4-b]indol-2-yl)propyl)-3-phenylpiperidine-1-carboxamide] | 53.7
13 | O=C(OCC(O)CN1CCc2c([nH]c3ccccc23)C1)N1CCc2ccccc2C1 (stereo not drawn) [Example 21, 2-Hydroxy-3-(1,3,4,9-tetrahydro-2H-pyrido[3,4-b]indol-2-yl)propyl 3,4-dihydroisoquinoline-2(1H)-carboxylate] | 6.19
14 | O=C(NCC(O)CN1CCc2c([nH]c3ccccc23)C1)N1CCC(c2ccccc2)C1 (stereo not drawn) [Example 23, N-(2-hydroxy-3-(1,3,4,9-tetrahydro-2H-pyrido[3,4-b]indol-2-yl)propyl)-3-phenyl pyrrolidine-1-carboxamide] | 75.7
15 | Cn1c2c(c3ccccc31)CCN(CC(O)CNC(=O)c1ccc(C(=O)N3C4CCC3COC4)cc1)C2 (stereo not drawn) [Example 19, N-(2-hydroxy-3-{9-methyl-1H,2H,3H,4H,9H-pyrido[3,4-b]indol-2-yl}propyl)-4-({3-oxa-8-azabicyclo[3.2.1]octan-8-yl}carbonyl)benzamide] | 26.9
16 | CN1CCN(c2cc(C(=O)NCC(O)CN3CCc4c([nH]c5ccccc45)C3)cc(NC3CCC3)n2)CC1 (stereo not drawn) [Example 10, 2-(cyclobutylamino)-N-(2-hydroxy-3-{1H,2H,3H,4H,9H-pyrido[3,4-b]indol-2-yl}propyl)-6-(4-methylpiperazin-1-yl)pyridine-4-carboxamide] | 0.067
17 | CN1CCN(c2nc(NC3CCC3)cc(C(=O)NCC(O)CN3CCc4c(c5ccccc5n4C)C3)n2)CC1 (stereo not drawn) [Example 6, 6-(cyclobutylamino)-N-(2-hydroxy-3-{5-methyl-1H,2H,3H,4H,5H-pyrido[4,3-b]indol-2-yl}propyl)-2-(4-methylpiperazin-1-yl)pyrimidine-4-carboxamide] | 0.108
18 | CC(=O)N1CCC(Nc2cc(C(=O)NCC(O)CN3CCc4c(n(C)c5ccccc45)C3)ncn2)CC1 (stereo not drawn) [Example 18, 6-[(1-acetylpiperidin-4-yl)amino]-N-(2-hydroxy-3-{9-methyl-1H,2H,3H,4H,9H-pyrido[3,4-b]indol-2-yl}propyl)pyrimidine-4-carboxamide] | 2.05
19 | O=C(OCC(O)CN1CCc2c([nH]c3ccccc23)C1)N1CCC(c2ccccc2)C1 (stereo not drawn) [Example 20, 2-hydroxy-3-(1,3,4,9-tetrahydro-2H-pyrido[3,4-b]indol-2-yl)propyl 3-phenylpyrrolidine-1-carboxylate] | 10.5
20 | O=C(NCC(O)CN1CCc2c([nH]c3ccccc23)C1)c1cc(NC2CCC2)ncn1 (stereo not drawn) [Example 11, 6-(Cyclobutylamino)-N-(2-hydroxy-3-{1H,2H,3H,4H,9H-pyrido[3,4-b]indol-2-yl}propyl)pyrimidine-4-carboxamide] | 0.459
21 | CC(=O)N1CCC(Nc2cc(C(=O)NCCCN3CCc4c([nH]c5ccccc45)C3)ncn2)CC1 [Example 25, 6-((1-acetylpiperidin-4-yl)amino)-N-(3-(1,3,4,9-tetrahydro-2H-pyrido[3,4-b]indol-2-yl)propyl)pyrimidine-4-carboxamide] | 0.099
22 | CC(=O)N1CCC(Nc2cc(C(=O)NC[C@@H](O)CN3CCc4c([nH]c5ccccc45)C3)ncn2)CC1 [Example 27, (R)-6-((1-acetylpiperidin-4-yl)amino)-N-(2-hydroxy-3-(1,3,4,9-tetrahydro-2H-pyrido [3,4-b]indol-2-yl)propyl)pyrimidine-4-carboxamide] | 0.158
23 | CN1CCN(c2nc(NC3CCC3)cc(C(=O)NCC(O)CN3CCc4c([nH]c5ccccc45)C3)n2)CC1 (stereo not drawn) [Example 9, 6-(cyclobutylamino)-N-(2-hydroxy-3-{1H,2H,3H,4H,9H-pyrido[3,4-b]indol-2-yl}propyl)-2-(4-methylpiperazin-1-yl)pyrimidine-4-carboxamide] | 0.148
24 | CN1CCN(c2cc(C(=O)NCC(O)CN3CCc4[nH]c5ccccc5c4C3)cc(NC3CCC3)n2)CC1 (stereo not drawn) [Example 2, 2-(cyclobutylamino)-N-(2-hydroxy-3-{1H,2H,3H,4H,5H-pyrido[4,3-b]indol-2-yl}propyl)-6-(4-methylpiperazin-1-yl)pyridine-4-carboxamide] | 0.771
